#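 1) Cells in 96-well plates. 2) Compound, 48 h, 5 concentrations. 3) Linear interpolation between surrounding doses. 4) Unreached endpoint = highest concentration. GI50 = concentration required for 50% inhibition of growth.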 The source made the active and inactive calls. Cut-off read from the data, not from the text of the source: active = GI50 up to about 1.1 µM and inactive = higher.
# Columns and labels:
# Test in all cases: NCI tumour cell line growth inhibition, 48 h
# SK-MEL-5 = system: SK-MEL-5
# OVCAR-5 = system: OVCAR-5
# 786-0 = system: 786-0
# NCI-H226 = system: NCI-H226
# HOP-62 = system: HOP-62
# SNB-19 = system: SNB-19
# NCI-H522 = system: NCI-H522
# UACC-257 = system: UACC-257
# HT-29 = system: HT-29
# CAKI-1 = system: CAKI-1
# SNB-75 = system: SNB-75
# U-251 = system: U-251
# SK-OV-3 = system: SK-OV-3
# SF-539 = system: SF-539
# SR = system: SR
# A498 = system: A498
# Malme-3M = system: Malme-3M
# HL-60 = system: HL-60
# SN12C = system: SN12C
# HOP-92 = system: HOP-92
Structure (SMILES),GI50 (SK-MEL-5),GI50 (OVCAR-5),GI50 (786-0),GI50 (NCI-H226),GI50 (HOP-62),GI50 (SNB-19),GI50 (NCI-H522),GI50 (UACC-257),GI50 (HT-29),GI50 (CAKI-1),GI50 (SNB-75),GI50 (U-251),GI50 (SK-OV-3),GI50 (SF-539),GI50 (SR),GI50 (A498),GI50 (Malme-3M),GI50 (HL-60),GI50 (SN12C),GI50 (HOP-92)
COc1cc(/C=C2/C(=O)N(C(=O)OCC(C)C)C(Cc3cc(OC)c(OC)c(C)c3OC)C(=O)N2Cc2ccccc2)c(OC)c(C)c1OC (stereo not given),74.6 µM (inactive),> 100 µM (inactive),> 100 µM (inactive),2.56 µM (inactive),54.7 µM (inactive),> 100 µM (inactive),5.26 µM (inactive),15.9 µM (inactive),> 100 µM (inactive),> 100 µM (inactive),> 100 µM (inactive),> 100 µM (inactive),> 100 µM (inactive),> 100 µM (inactive),25.1 µM (inactive),> 100 µM (inactive),> 100 µM (inactive),8.2 µM (inactive),> 100 µM (inactive),4.74 µM (inactive)
N[C@@H]1c2c(Br)sc(Br)c2C(=O)[C@H]1Br,2.6 µM (inactive),> 82.4 µM (inactive),23.1 µM (inactive),> 42.3 µM (inactive),50.4 µM (inactive),45.9 µM (inactive),14.7 µM (inactive),18.6 µM (inactive),21.7 µM (inactive),27.3 µM (inactive),> 100 µM (inactive),22.7 µM (inactive),> 100 µM (inactive),> 63.1 µM (inactive),16.1 µM (inactive),35.2 µM (inactive),21.7 µM (inactive),2.42 µM (inactive),24.9 µM (inactive),17.5 µM (inactive)
COC(=O)CCC(=O)c1ccc2c(c1)CC1(C2)Cc2ccc3c(c2C1)CCCC3=O (stereo not given),10.5 µM (inactive),40.1 µM (inactive),29.9 µM (inactive),27.8 µM (inactive),> 53.5 µM (inactive),27.2 µM (inactive),21.4 µM (inactive),18.9 µM (inactive),11.2 µM (inactive),16.4 µM (inactive),86.5 µM (inactive),25 µM (inactive),50.6 µM (inactive),11.9 µM (inactive),0.297 µM (active),20.7 µM (inactive),18.4 µM (inactive),3.94 µM (inactive),38.1 µM (inactive),15.5 µM (inactive)

# Source: ChEMBL document CHEMBL1201862, “PubChem BioAssay data set” (2004)
